These results are taken from patent US20260325473A1, “N-Beta-Hydroxybutyryl-Amino Acids and Related Compositions and Methods” (The Board of Trustees of the Leland Stanford Junior …, priority 2023, published 2026).

One data set deals with DIO mice. Nature of the data set: Plasma ghrelin, leptin and GDF-15 in DIO mice. To be noted: 50 mg/kg IP, single; 1 h. In kind it is in vivo, mouse. How it is done:
Leptin, ghrelin and GDF-15 measurements. Plasma was collected from DIO mice 1 h after the administration of BHB-Phe (50 mg/kg, IP) or vehicle. ELISA kits for leptin (Crystal Chem 90030), ghrelin (Cayman Chemicals 10006307) and GDF-15 (R&D Systems DY6385-05) were used following manufacturer's instructions.

In a further data set the test system is primary cardiomyocytes. Nature of the data set: Keto amino acid production in BHB-treated cardiomyocytes. To be noted: BHB 25 mM, overnight. It counts as cell-based, human. As to the method: Human induced pluripotent stem cells (iPSCs) culture and cardiac differentiation into cardiomyocytes (CMs). Human iPSCs from healthy donors were provided by Stanford Cardiovascular Institute Biobank and cultured in the E8 medium. When iPSCs were grown to 95% confluence, the E8 medium was replaced with RPMI 1640 (GIBCO) supplemented with B27 minus insulin (GIBCO) and 5 µM CHIR-99021 (Selleck Chemicals) to start cardiac differentiation at day 0. On day 2, the medium was replaced with RPMI-B27 minus insulin. On day 3, the medium was changed to RPMI-B27 minus insulin containing 5 μM IWR-1 (Selleck Chemicals) and was maintained for 48 hours. On day 5, the medium was changed back to RPMI-B27 minus insulin and was maintained for 48 hours. Then, the cells were incubated with complete CM medium consisting of RPMI 1640 medium and B27 supplement plus insulin (GIBCO). On day 12, the medium was replaced with RPMI-B27 without D-glucose (GIBCO) for metabolic purification of CMs for 4 days. Then, the medium was changed to the complete CM medium and replaced every 2 days. Human iPSC-CMs were dissociated by TrypLE Express (GIBCO) and re-plated on Matrigel-coated 12-well plate for further experiments. Cultures were maintained at 37° C. in a humidified incubator with 5% (v/v) CO^2.
Cellular enzyme activity assays. Cells were plated in 12-well plates at 70-80% confluence. […]

Data set [1] can be described thus: Keto-Med study, plasma metabolites. It counts as in vivo. To be noted: human; 4 weeks WFKD vs baseline. How it is done:
Targeted metabolomics. Targeted measurements were performed using an Agilent 6470 triple quadrupole LC-MS instrument. MS analysis was performed using AJS in negative mode. The AJS source parameters were set as follows: the dry gas temperature was set at 250° C. with a gas flow of 12 l/min and the nebulizer pressure at 25 psi; the sheath gas temperature was set to 300° C. with the sheath gas flow set at 12 l/min; and the capillary voltage was set to 3,500 V. Separation of polar metabolites was performed as described above in the ‘Untargeted measurements of metabolites by LC-MS’ section. Multiple reaction monitoring was performed for the indicated metabolites with the listed dwell times, fragmentor voltage, collision energies, cell accelerator voltages and polarities. Quantification of the endogenous metabolite concentrations were performed by generating a standard curve with known concentrations of each metabolite. Metabolite standards were analyzed alongside the plasma samples using the same targeted triple quadrupole LC/MS method. A calibration standard curve generated from the metabolite standard concentrations and total peak areas were used to calculate the concentrations of each endogenous metabolite. The dilution of the plasma during the sample preparation was also taken into account for the quantification.
Keto-Med study. Keto-Med was a single-site, randomized, crossover, interventional trial comparing 2 metabolically distinct diets (well-formulated ketogenic diet, WFKD; and Mediterranean-plus diet, Med-Plus) among individuals with prediabetes and T2DM. Forty participants aged ≥18 years with prediabetes or T2DM followed the WFKD and the Med-Plus for 12 weeks each, in random order. Participants were randomly assigned into 1 of 2 different diet sequences: WFKD for 12 weeks (phase 1) and then the Med-Plus for 12 weeks (phase 2), or the opposite order. Ad libitum intake was advised, and participants were guided to follow 2 sets of dietary guidelines that shared 3 important similarities (incorporating nonstarchy vegetables and avoiding added sugars and refined grains) and 3 important differences (incorporating compared with avoiding legumes, fruits, and whole, intact grains). During the WFKD phase, participants were counseled to sustain nutritional ketosis by limiting carbohydrates to 20-50 g/day and keeping proteins to ~1.5 g/kg ideal body weight/day, with the remaining kcals coming from fats. Participants were also instructed to consume >3 servings/day of nonstarchy vegetables and maintain adequate mineral and fluid intake for the ketogenic state (sodium, 3-5 g/day; potassium, 3-4 g/day). […]

Turning to `CC(O)CC(=O)N[C@@H](Cc1ccccc1)C(=O)O` (some centres unmarked) [BHB-Phe, N-betahydroxybutyryl-phenylalanine], in the data set with DIO mice, the “plasma GDF15” value is recorded as “unaltered”, the plasma ghrelin result is “unaltered” and the plasma leptin result is listed as “unaltered”. Besides, the “keto amino acid production by cardiomyocytes” value in the data set on primary cardiomyocytes is “minor amount”.
In the case of `CC(O)CC(=O)N[C@H](C(=O)O)C(C)C` (some centres unmarked) [BHB-Val, N-betahydroxybutyryl-valine], the “induction of plasma keto amino acids on WFKD” value in data set [1] is on record as “Robust induction”.
